Nine molecules from BindingDB's records for doi:10.1111/j.1747-0285.2007.00590.x (2007) can be followed below.

Assay [1] deals with T1, Hyaluronidase-1 (Homo sapiens, UniProt Q12794).
T1 sequence (Q12794 whole entry): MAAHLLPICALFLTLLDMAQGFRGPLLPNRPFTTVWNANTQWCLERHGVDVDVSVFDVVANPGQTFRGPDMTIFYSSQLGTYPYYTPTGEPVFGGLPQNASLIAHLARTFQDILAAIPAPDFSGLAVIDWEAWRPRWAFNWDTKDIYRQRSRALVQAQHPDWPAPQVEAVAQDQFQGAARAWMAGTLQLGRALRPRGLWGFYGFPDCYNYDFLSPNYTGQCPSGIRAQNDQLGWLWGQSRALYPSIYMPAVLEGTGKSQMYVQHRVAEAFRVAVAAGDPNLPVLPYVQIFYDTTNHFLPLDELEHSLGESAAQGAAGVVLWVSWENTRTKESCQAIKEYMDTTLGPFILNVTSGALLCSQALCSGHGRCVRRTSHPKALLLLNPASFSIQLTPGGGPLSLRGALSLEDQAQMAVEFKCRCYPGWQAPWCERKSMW
Nature of the assay: Morgan-Elson Assay. The following applies: pH 3.5; 37 °C. The text has this: Morgan-elson assay were used to test inhibitors at pH of 3.5.

Assay [2] addresses T1, Hyaluronidase-1. Put plainly: Stains-all Assay. The following applies: pH 7; 37 °C. The text has this: Stains-all assay were used to test inhibitors at pH of 7.

For `O=C(NCc1ccc(Cl)cc1)c1cn(Cc2ccc(F)cc2)c2ccccc12` [N-Substituted indole-2- and 3-carboxamide derivative, 17], the IC50 against Hyaluronidase-1 [1] came to 72.9 µM; at Hyaluronidase-1 [2] it was 33.7 µM.

`O=C(NCc1ccccc1)c1cn(Cc2ccc(F)cc2)c2ccccc12` [N-Substituted indole-2- and 3-carboxamide derivative, 16]: the IC50 turned out to be 61.6 µM against Hyaluronidase-1 [1] and 33 µM against Hyaluronidase-1 [2]. In the case of `O=C(NCc1ccc(F)cc1)c1cn(Cc2ccc(F)cc2)c2ccccc12` [N-Substituted indole-2- and 3-carboxamide derivative, 18], the IC50 against Hyaluronidase-1 [1] stood at 56.7 µM; against Hyaluronidase-1 [2], 25.7 µM. As to `O=C(NCc1ccc(Cl)cc1)c1cc2ccccc2n1Cc1ccccc1` [N-Substituted indole-2- and 3-carboxamide derivative, 2], the IC50 on Hyaluronidase-1 [1] is 64.3 µM; on Hyaluronidase-1 [2] it was 33.2 µM. Molecule `O=C(NCc1ccccc1)c1cc2ccccc2n1Cc1ccc(F)cc1` [N-Substituted indole-2- and 3-carboxamide derivative, 6] gave an IC50 against Hyaluronidase-1 [2] of 41.1 µM.

Take `O=C(NCc1ccc(F)cc1)c1cc2ccccc2n1Cc1ccc(F)cc1` [N-Substituted indole-2- and 3-carboxamide derivative, 8]: at Hyaluronidase-1 [2], the IC50 came out at 29.9 µM. Consider `O=C(NCc1ccccc1)c1cc2ccccc2n1Cc1ccccc1` [N-Substituted indole-2- and 3-carboxamide derivative, 1], for which the half-inhibitory concentration (IC50) on Hyaluronidase-1 [1] is 78.2 µM; at Hyaluronidase-1 [2] it was 40.3 µM.

Turning to `O=C(NCc1ccc(Cl)cc1)c1cc2ccccc2n1Cc1ccc(F)cc1` [N-Substituted indole-2- and 3-carboxamide derivative, 7], the IC50 on Hyaluronidase-1 [2] came out at 33 µM. `O=C(NCc1ccc(F)cc1)c1cc2ccccc2n1Cc1ccccc1` [N-Substituted indole-2- and 3-carboxamide derivative, 3] gave a half-inhibitory concentration (IC50) on Hyaluronidase-1 [2] of 27.2 µM.

The IC50 is the concentration that gives 50% inhibition. Low values mean inhibition by little substance, high ones a need for much substance.
